Active and inactive are the calls of the source. No cut-off for these calls is given here.

Holding throughout (format): cell-based
The species entered for assay [1] is Rattus norvegicus. Kind of assay: Inhibition of secretory phospholipase A2 in rat renal mesangial cells assessed as suppression of IL-1beta/forskolin stimulated PGE2 formation preincubated for 20 mins prior to IL-1beta/forskolin challenge at 1 to 10 uM measured after 24 hrs by PGE2-specific ELISA. For orientation: An ELISA detects its analyte on a solid surface through an enzyme-linked reagent.

For assay [2], the species on record is Rattus norvegicus. The experiment in a line: Inhibition of secretory phospholipase A2 in rat renal mesangial cells assessed as suppression of IL-1beta/forskolin stimulated PGE2 formation preincubated for 20 mins prior to IL-1beta/forskolin challenge at 1 uM measured after 24 hrs by PGE2-specific ELISA.
The species named for assay [3] is Rattus norvegicus. The experiment in a line: Inhibition of secretory phospholipase A2 in rat renal mesangial cells assessed as suppression of IL-1beta/forskolin stimulated PGE2 formation preincubated for 20 mins prior to IL-1beta/forskolin challenge at 3 and 10 uM measured after 24 hrs by PGE2-specific ELISA.
The species entered for assay [4] is Rattus norvegicus. The experiment in a line: Inhibition of secretory phospholipase A2 in rat renal mesangial cells assessed as suppression of IL-1beta/forskolin stimulated PGE2 formation preincubated for 20 mins prior to IL-1beta/forskolin challenge at 10 uM measured after 24 hrs by PGE2-specific ELISA.

Turning to `CCCC[C@H](CCC(=O)O)NC(=O)CCCCCCc1ccccc1`, the inhibition result in the assay listed under Rattus norvegicus [1] is “Active”.

Consider `CCCC[C@H](CCC(=O)O)NC(=O)CCCCCOc1ccccc1`, for which the inhibition result in the assay filed under Rattus norvegicus [2] was “inactive”. The inhibition entry in the assay filed under Rattus norvegicus [3] was “Active”.

For `CCCCCCCCCCCCCCC(=O)C(=O)N[C@@H](CC(C)C)C(=O)O`, the inhibition result in the assay filed under Rattus norvegicus [1] was “Active”.

Turning to `CCCC[C@H](CCC(=O)O)NC(=O)CCCCNC(=O)c1ccccc1`, the inhibition entry in the assay filed under Rattus norvegicus [2] is “inactive”. Also, the inhibition entry in the assay listed under Rattus norvegicus [3] was “Active”.

Regarding `CCCC[C@H](CCC(=O)O)NC(=O)CCCC(=O)NCc1ccccc1`, in the assay filed under Rattus norvegicus [1], the inhibition entry was “Active”.

For `CC(C)[C@H](NC(=O)C(=O)c1ccc2ccccc2c1)C(=O)O`, the inhibition result in the assay filed under Rattus norvegicus [2] was “inactive”. Besides, in the assay listed under Rattus norvegicus [3], the inhibition result is “Active”.

Take `O=C(CCCCc1ccccc1)C(F)(F)C(F)(F)F`: the inhibition result in the assay filed under Rattus norvegicus [4] was “inactive”.

On to `O=C(O)CC[C@@H](Cc1ccc(OCc2ccccc2)cc1)NC(=O)CCCCCCc1ccccc1`, for which the inhibition result in the assay listed under Rattus norvegicus [1] was “Active”.

For the molecule `CCCC[C@H](CCC(=O)O)NC(=O)CCCCNC(=O)c1ccc(OC)cc1`, in the assay filed under Rattus norvegicus [1], the inhibition result is “Active”.

Regarding `CCCC[C@H](CCC(=O)O)NC(=O)CCCCC(=O)Nc1ccccc1`, in the assay filed under Rattus norvegicus [2], the inhibition entry is “inactive”. Further, the inhibition result in the assay filed under Rattus norvegicus [3] is “Active”.

With `CC(C)[C@H](NC(=O)C(=O)CCCCc1ccccc1)C(=O)O`, the inhibition entry in the assay filed under Rattus norvegicus [1] is “Active”.

In the case of `CCCCCCCCCCCCCCCCC(=O)C(=O)N[C@H](C(=O)O)C(C)C`, in the assay listed under Rattus norvegicus [1], the inhibition entry was “Active”.

As for `CCCCCCCCCCCCCCC(=O)C(=O)N[C@@H](CCCC)CCCC(=O)O`, the inhibition result in the assay listed under Rattus norvegicus [4] is “inactive”.

Consider `CCCCCCCCCCCCCCC(=O)C(=O)NCCCC(=O)OCC`, for which, in the assay filed under Rattus norvegicus [4], the inhibition result is “inactive”.

With `CC(C)[C@H](NC(=O)C(=O)CCCCc1ccc2ccccc2c1)C(=O)O`, in the assay listed under Rattus norvegicus [1], the inhibition entry was “Active”.

These data come from ChEMBL document CHEMBL3804823, “Inhibitors of secreted phospholipase A2 suppress the release of PGE2 in renal mesangial cells” (Bioorg Med Chem, 2016).
